Source: patent publication US20250171821A1, “HIF-1 ACTIVATORS AND USES THEREOF” (Ramot at Tel-Aviv University Ltd., priority 2022, published 2025)
Where a name gives a salt, the structure may show the parent alone. Where no end group is shown, it is not given here.

Columns and labels:
[1] = system: MG-63 cells; test: Collagen-I immunofluorescence in MG-63 cells treated with iron chelator; type: cell-based, human; details: 48 hours
Experimental: For microscopy images, cells were cultured in a 24-well plate and incubated with medium supplemented with the indicated concentrations of the treating entity (e.g., peptides or DFO) at 37° C. under 5% CO2. Cells were then washed additional three times with cold phosphate-buffered saline (PBS), following a 20 minute fixation in a 4% paraformaldehyde (PFA) in PBS and extensively washed three times with PBS to remove the PFA, followed by a 20 minute wash with blocking and penetration solution (PBS with 0.1% Triton X-100 and 2% BSA). Fixed cells were incubated with antibodies for 1 hour at 25° C., washed, and developed together with fluorescence-tagged secondary antibodies (Alexa 488 and 647, Abcam). Cell nuclei were stained with 1 mg/mL 4′,6-diamidino-2-phenylindole (DAPI Staining Solution ab228549, Abcam). Images were taken using a ZEISS LSM 900 in confocal mode, using Zen 3.1. Fluorescence readouts were obtained at ex/em of 358/461, 495/519 nm, and 652/668 nm for blue, green, and red, respectively.
The present inventors have incubated MG-63 cells with deferoxamine mesylate (DFO), an iron chelator, to explore the possibility of enhancing Collagen-I levels in these cells.

[2] = system: NIH/3T3 cell line; test: Cell confluence / number of cells per image in NIH/3T3 cells; type: cell-based, mouse; details: 48 hours; for toxicity suggested by number of cells: 5-0.02 μM
Experimental: (§1) Embryonic mouse fibroblast NIH/3T3 cell line (ATCC) were seeded at a concentration of 50*10^3 cells/well on 96 well glass bottom plate (P96-1.5H-N, Cellvis) for the immunofluorescence experiment and on cell culture microplate, 96 well, PS, F-Bottom (655090, greiner) for the viability experiment. The cells were cultured with Dulbecco's modified Eagle's medium (DMEM) supplemented with 10% fetal calf serum, 1% Penicillin-Streptomycin solution and 1% L-glutamine (All purchased from Rhenium). At 24 hours post seeding, cells were treated for another 48 hours by replacing them with the cell medium supplemented with a serial dilution (5-0.02 μM, factor dilution of 2) of the ML228, Daprodustat, Enarodustat, Molidustat, Vadadustat or Roxadustat molecules dissolved in DMSO. The final DMSO concentration in the cell medium was 0.01%. Cells were maintained in an incubator at 37° C. in a humidified atmosphere containing 5% CO2.
Image acquisition and quantification were performed by Incucyte SX5 (Sartorius) using software version 2022B Rev2. A standard scan was done for 9 images per well using 20× objective, 2 optical modules (green at excitation/emission of 453-485 nm/494-533 nm in 300 msec acquisition time, and near-IR at excitation/emission of 648-674 nm/685-756 nm in 400 msec acquisition time, including Phase channel) following immunofluorescence protocol. For the image analysis, 2-6 replicates per condition were used. Using the Basic Analyzer mode, “Phase Object Confluence (%)” was acquired using the Phase channel. This measurement is the percentage of the image area occupied by cells. “Total Collagen-I Integrated Intensity Per Image (GCU×μm^2/Image)” was acquired using the green optical module. GCU stands for Green calibrated Unit, while this measurement is the total sum of the Collagen-I objects' fluorescent intensity in the image. “#Cells (Per image)” was acquired by the near-IR optical module. This measurement was calculated by counting the number of nuclei per image.
Multiple comparisons were performed by ordinary one-way ANOVA followed by Dunnett's post-hoc statistical hypothesis for comparing each condition mean to the control mean. Statistical analysis was done using GraphPad Prism version 10.0.0 for Windows, GraphPad Software, Boston, Massachusetts USA, worldwideweb(dot)graphpad(dot)com. For statistical analysis, significance was set as (*) p≤0.05; (**) p≤0.01; (***) p≤0.001; (****) p≤0.0001 and (ns; not significant) p>0.05.

[3] = system: NIH/3T3 cell line; test: Collagen type 1 immunofluorescence in NIH/3T3 cells (Incucyte); type: cell-based, mouse; details: 48 hours; for concentrations with significant increase of collagen type 1 normalized to number of cells vs untreated cells: serial dilution 5-0.02 μM, one-way ANOVA
Experimental: as §1
At 48 hours post treatment with either Daprodustat, Enarodustat, Molidustat, Vadadustat or Roxadustat, cells were fixed for 10 minutes together with their media with 8% paraformaldehyde (PFA, Electron Microscopy Sciences) dissolved in phosphate-buffered saline (PBS, Invitrogen) to a final concentration of 4% PFA, without any wash to avoid cells detachment from the glass. Cells were briefly washed four times with ice-cold PBS to remove the PFA and kept overnight at 4° C. The following day, a blocking solution which contains 1.5% Bovine Serum Albumin (Sigma Aldrich) dissolved in PBS was applied for 30 minutes, followed by an overnight incubation at 4° C. with recombinant rabbit anti-mouse Collagen-I 1° antibody (primary Ab) [EPR24331-53] (ab270993, Abcam), dissolved in the blocking solution (1:1000 dilution). The following day, cells were washed for 3 times with PBS (5 minutes each), followed by immunostaining with goat anti-rabbit IgG H&L (Alexa Fluor® 488) 2° antibody (secondary Ab) (ab150077, Abcam) dissolved in blocking solution (1:1000 dilution). Cells were washed again for 3 times with PBS (5 minutes each), stained for 30 minutes with DRAQ5™ (ab108410, Abcam) for nuclei staining dissolved in PBS (1:1000 dilution), and washed once again with PBS. For the ML228 experiment, cells were washed with PBS before applying 4% PFA dissolved in PBS. Then, fixed cells were additionally permeabilized with 0.2% Triton™ X-100 (Merck) dissolved in PBS, additionally stained with Phalloidin-Atto 594 (51927, Sigma Aldrich) for F-Actin staining for 1 hour (1:250 dilution) together with the aforementioned secondary antibody, followed by 10 minutes incubation with DAPI staining solution (ab228549, Abcam) for nuclei staining dissolved in PBS (1:1000 dilution).
Images were taken using a ZEISS LSM 900 in wide-field or in the LSM confocal detection mode (ML228 experiment), using Zen 3.1. Fluorescence readouts were obtained at excitation/emission: 353/465 nm (DAPI), 493/517 nm (Collagen-I), 590/618 (F-Actin) and 647/683 nm (DRAQ5) using a Plan-Apochromat 20×/0.8 M27 objective.
Image acquisition and quantification were performed by Incucyte SX5 (Sartorius) using software version 2022B Rev2. A standard scan was done for 9 images per well using 20× objective, 2 optical modules (green at excitation/emission of 453-485 nm/494-533 nm in 300 msec acquisition time, and near-IR at excitation/emission of 648-674 nm/685-756 nm in 400 msec acquisition time, including Phase channel) following immunofluorescence protocol. For the image analysis, 2-6 replicates per condition were used. Using the Basic Analyzer mode, “Phase Object Confluence (%)” was acquired using the Phase channel. This measurement is the percentage of the image area occupied by cells. “Total Collagen-I Integrated Intensity Per Image (GCU×μm^2/Image)” was acquired using the green optical module. GCU stands for Green calibrated Unit, while this measurement is the total sum of the Collagen-I objects' fluorescent intensity in the image. “#Cells (Per image)” was acquired by the near-IR optical module. […]

[4] = target: T1, PHD2/EGLN1 (HIF-prolyl hydroxylase 2) (human, UniProt Q9GZT9 181-426); test: fluorescence polarization; PHD protein titrated into 200 nM FITC-labeled peptide; single site fit
T1 construct: The protein was expressed as a cleavable GST fusion and the eluate of the GST column was used; also called PHD enzyme; PHD protein
Experimental: Fluorescence polarization (FP) assay—Fluorescence Polarization (FP) measurements were performed on samples arrayed in a 96-well plate using Biotek HybridH1 reader equipped with a polarized optic system. Binding assay was evaluated by adding variable concentrations of PHD protein into 200 nM of FITC-labeled peptides. Experimental polarization data were fitted using GraphPad Prism9 into a single site binding model, with error bars representing standard deviation.

T1 sequence (Q9GZT9 other isoform, or with tags, fused parts or gaps limits assumed): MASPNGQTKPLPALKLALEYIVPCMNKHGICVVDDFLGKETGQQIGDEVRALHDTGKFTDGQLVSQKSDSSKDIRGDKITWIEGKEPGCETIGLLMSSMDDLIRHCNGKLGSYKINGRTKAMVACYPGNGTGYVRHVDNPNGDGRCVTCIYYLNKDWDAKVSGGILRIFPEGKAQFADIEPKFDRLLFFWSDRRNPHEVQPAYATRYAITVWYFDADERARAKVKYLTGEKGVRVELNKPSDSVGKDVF

In the case of CC(=O)N(O)CCCCCNC(=O)CCC(=O)N(O)CCCCCNC(=O)CCC(=O)N(O)CCCCCN [DFO, Deferoxamine mesylate], the “DFO concentration giving maximal Collagen-I levels” value ([1]; normalized to β-tubulin) is reported as 10 to 20 µM and the Collagen-I production ([1]; even at low DFO concentrations such as 0.15 μM) is reported as “increased Collagen-I production”.

With O=C(O)CNC(=O)C1C(=O)N(C2CCCCC2)C(=O)N(C2CCCCC2)C1=O [Daprodustat, N-[(1,2-Dicyclohexylhexahydro-2,4,6-trioxo-5-pyrimidinyl)carbonyl]glycine] the “number of cells compared to untreated cells” value ([2]; 0.08 μM Daprodustat, p<0.0001) was “lower number of cells”, the “toxicity suggested by number of cells” value [2] was “no toxicity” and the “number of cells compared to untreated cells” value ([2]; serial dilution 5-0.02 μM) was “no significant difference”. For the same molecule, the “concentrations with significant increase of collagen type 1 normalized to number of cells vs untreated cells” value [3] was 0.31 to 5 µM.

In the case of O=C(O)CNC(=O)c1c(O)cc(CCc2ccccc2)n2ncnc12 [Enarodustat, N-[[7-Hydroxy-5-(2-phenylethyl)[1,2,4]triazolo[1,5-a]pyridin-8-yl]carbonyl]glycine], the “toxicity suggested by number of cells” value [2] is reported as “no toxicity”, the “number of cells compared to untreated cells” value ([2]; serial dilution 5-0.02 μM) is reported as “no significant difference” and the “concentrations with significant increase of collagen type 1 normalized to number of cells vs untreated cells” value [3] is reported as 0.31 to 5 µM.

O=c1c(-n2ccnn2)c[nH]n1-c1cc(N2CCOCC2)ncn1 [Molidustat, 1,2-Dihydro-2-[6-(4-morpholinyl)-4-pyrimidinyl]-4-(1H-1,2,3-triazol-1-yl)-3H-pyrazol-3-one] was tested, and the “toxicity suggested by number of cells” value [2] was “toxic effect”, the “number of cells compared to untreated cells” value ([2]; serial dilution 5-0.02 μM) was “significantly lower” and the “concentrations with significant increase of collagen type 1 normalized to number of cells vs untreated cells” value [3] was 0.63 to 5 µM.

In the case of Cc1nc(C(=O)NCC(=O)O)c(O)c2ccc(Oc3ccccc3)cc12 [Roxadustat, N-[(4-Hydroxy-1-methyl-7-phenoxy-3-isoquinolinyl)carbonyl]glycine], the “toxicity suggested by number of cells” value [2] is reported as “no toxicity”, the “number of cells compared to untreated cells” value ([2]; serial dilution 5-0.02 μM) is reported as “significantly higher” and the “concentrations with significant increase of collagen type 1 normalized to number of cells vs untreated cells” value [3] is reported as 0.08 to 5 µM.

In the case of O=C(O)CNC(=O)c1ncc(-c2cccc(Cl)c2)cc1O [Vadadustat, N-[[5-(3-Chlorophenyl)-3-hydroxy-2-pyridinyl]carbonyl]glycine], the “toxicity suggested by number of cells” value [2] is reported as “no toxicity”, the “number of cells compared to untreated cells” value ([2]; serial dilution 5-0.02 μM) is reported as “significantly higher” and the “collagen type 1 expression compared to untreated cells” value ([3]; 0.02-5 μM) is reported as “significant increase”.

B1: EPAS1 peptide (FITC-labeled) (peptide)
peptide: ELDLETLAPYIPMDGEDFQL
modifications: also: FITC label, position not given here
notes: The FP assay used 200 nM of FITC-labeled peptide; also called EPAS1-derived peptide
B1 showed a Kd [4] of 4 µM.

B2: HIF peptide (FITC-labeled) (peptide)
peptide: DLDLEALAPYIPADDDFQLR
modifications: also: FITC label, position not given here
notes: The FP assay used 200 nM of FITC-labeled peptide; also called HIF1 peptide
B2 showed a Kd [4] of 7 µM.
